# Source: ChEMBL document CHEMBL1133952, “Identification of E2F-1/Cyclin A antagonists” (Bioorg Med Chem Lett, 2001)
# Residues, ends and D or L forms follow the SMILES beside them. *: point of attachment. Cyclohexanecarbonyl = O=C(C1CCCCC1)*; Cyclopentanecarbonyl = O=C(C1CCCC1)*; Cyclopropanecarbonyl = O=C(C1CC1)*; Isobutyryl = CC(C)C(=O)*; Piv = CC(C)(C)C(=O)*; Propionyl = CCC(=O)*; Bz = O=C(c1ccccc1)*
# Assay: In vitro inhibitory activity against E2F-1/Cyclin A was determined using ELISA assay
row,IC50,Molecule
1,100 nM,CC(C)C[C@H](NC(=O)[C@H](CC(=O)O)NC(=O)[C@H](CC(C)C)NC(=O)[C@H](CCCN=C(N)N)NC(=O)[C@H](CCCN=C(N)N)NC(=O)[C@H](CCCCN)NC(=O)[C@@H](NC(=O)[C@@H]1CCCN1)C(C)C)C(=O)O
2,450 nM,CC(C)C[C@H](NC(=O)[C@H](CCCCN)NC(=O)[C@H](CCCN=C(N)N)NC(=O)[C@H](CCCCN)NC(=O)C1CCCCC1)C(=O)N[C@@H](Cc1ccccc1)C(=O)NCC(=O)O (Cyclohexanecarbonyl-KRKLFG-OH)
3,350 nM,CC(C)C[C@H](NC(=O)[C@H](CCCCN)NC(=O)[C@H](CCCN=C(N)N)NC(=O)[C@H](CCCCN)NC(=O)C1CCCC1)C(=O)N[C@@H](Cc1ccccc1)C(=O)NCC(=O)O (Cyclopentanecarbonyl-KRKLFG-OH)
4,150 nM,CC(C)C[C@H](NC(=O)[C@H](CCCCN)NC(=O)[C@H](CCCN=C(N)N)NC(=O)[C@H](CCCCN)NC(=O)C(C)(C)C)C(=O)N[C@@H](Cc1ccccc1)C(=O)NCC(=O)O (Piv-KRKLFG-OH)
5,450 nM,CCC(=O)N[C@@H](CCCCN)C(=O)N[C@@H](CCCN=C(N)N)C(=O)N[C@@H](CCCCN)C(=O)N[C@@H](CC(C)C)C(=O)N[C@@H](Cc1ccccc1)C(=O)NCC(=O)O (Propionyl-KRKLFG-OH)
6,200 nM,"CC(C)C[C@H](NC(=O)[C@H](CC(N)=O)NC(=O)[C@H](CCCN=C(N)N)NC(=O)C(CS)NC(=O)[C@H](C)NC(=O)C(N)CO)C(=O)N[C@@H](Cc1ccccc1)C(=O)NCC(=O)O (single isomer, unassigned)"
7,200 nM,Ac-AKRKLFG-OH
8,> 100000 nM,H-PVKARADL-OH

# The next lines start with the molecule.
row,Molecule,IC50
1,CC(=O)N1CCC[C@H]1C(=O)N[C@H](C(=O)N[C@@H](CCCCN)C(=O)N[C@@H](CCCN=C(N)N)C(=O)N[C@@H](CCCCN)C(=O)N[C@@H](CC(C)C)C(=O)N[C@H](Cc1ccccc1)C(=O)NCC(=O)O)C(C)C,250 nM
2,CC(=O)N1CCC[C@H]1C(=O)N[C@H](C(=O)N[C@@H](CCCCN)C(=O)N[C@@H](CCCN=C(N)N)C(=O)N[C@H](CCCCN)C(=O)N[C@@H](CC(C)C)C(=O)N[C@@H](Cc1ccccc1)C(=O)NCC(=O)O)C(C)C,5000 nM
3,CC(=O)N[C@@H](CCCN=C(N)N)C(=O)N[C@@H](CCCCN)C(=O)N[C@@H](CC(C)C)C(=O)N[C@@H](Cc1ccccc1)C(=O)NCC(=O)O,30000 nM
4,CC(=O)N1CCC[C@H]1C(=O)N[C@H](C(=O)N[C@@H](CCCCN)C(=O)N[C@@H](CCCN=C(N)N)C(=O)N[C@@H](CCCCN)C(=O)N[C@@H](CC(C)C)C(=O)N[C@@H](Cc1ccccc1)C(=O)NCC(=O)O)C(C)C,100 nM
5,CC(=O)N1CCC[C@H]1C(=O)N[C@H](C(=O)N[C@@H](CCCCN)C(=O)N[C@H](CCCN=C(N)N)C(=O)N[C@@H](CCCCN)C(=O)N[C@@H](CC(C)C)C(=O)N[C@@H](Cc1ccccc1)C(=O)NCC(=O)O)C(C)C,45000 nM
6,CC(=O)N[C@@H](CCCCN)C(=O)N[C@@H](CC(C)C)C(=O)N[C@@H](Cc1ccccc1)C(=O)NCC(=O)O (Ac-KLFG-OH),45000 nM
7,CC(C)C[C@H](NC(=O)[C@H](CCCCN)NC(=O)[C@H](CCCN=C(N)N)NC(=O)[C@H](CCCCN)NC(=O)c1ccccc1)C(=O)N[C@@H](Cc1ccccc1)C(=O)NCC(=O)O (Bz-KRKLFG-OH),1500 nM
8,CC(C)C[C@H](NC(=O)[C@H](CCCCN)NC(=O)[C@H](CCCN=C(N)N)NC(=O)[C@H](CCCCN)NC(=O)C1CC1)C(=O)N[C@@H](Cc1ccccc1)C(=O)NCC(=O)O (Cyclopropanecarbonyl-KRKLFG-OH),150 nM
9,CC(C)C[C@H](NC(=O)[C@H](CCCCN)NC(=O)[C@H](CCCN=C(N)N)NC(=O)[C@H](CCCCN)NC(=O)C(C)C)C(=O)N[C@@H](Cc1ccccc1)C(=O)NCC(=O)O (Isobutyryl-KRKLFG-OH),150 nM
10,Ac-KRKLFG-OH,1000 nM
11,H-PAKRKLFG-OH,100 nM
